# Assay results: PubChem BioAssay (NCI)
#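 Results reflect a 48-hour exposure of cells in 96-well plates to compound at five concentrations. GI50 = concentration required for 50% inhibition of growth. Definition used: TGI = concentration required for complete inhibition of growth.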
# Experiments:
# Assay in all cases: NCI tumour cell line growth inhibition, 48 h
# SNB-19 CNS = tested on: SNB-19 CNS
# LOX IMVI melanoma = tested on: LOX IMVI melanoma
# HCT-15 colon = tested on: HCT-15 colon
# SN12C renal = tested on: SN12C renal
# OVCAR-5 ovarian = tested on: OVCAR-5 ovarian
# SF-539 CNS = tested on: SF-539 CNS
# HT29 colon = tested on: HT29 colon
# M14 melanoma = tested on: M14 melanoma
# A498 renal = tested on: A498 renal
# PC-3 prostate = tested on: PC-3 prostate
Compound,TGI (SNB-19 CNS),TGI (LOX IMVI melanoma),TGI (HCT-15 colon),TGI (SN12C renal),TGI (OVCAR-5 ovarian),TGI (SF-539 CNS),TGI (HT29 colon),TGI (M14 melanoma),TGI (A498 renal),GI50 (SNB-19 CNS),GI50 (LOX IMVI melanoma),GI50 (HCT-15 colon),GI50 (PC-3 prostate),TGI (PC-3 prostate),GI50 (SN12C renal),GI50 (OVCAR-5 ovarian),GI50 (SF-539 CNS),GI50 (HT29 colon),GI50 (A498 renal),GI50 (M14 melanoma)
OC1CN(OC/C=C/c2ccccc2)CC(O)C1O (stereo unspecified),> 100 µM,> 100 µM,> 100 µM,> 100 µM,> 100 µM,> 100 µM,> 100 µM,> 100 µM,> 100 µM,,,,,,,,,,,
COc1ccc(Nc2c3ccccc3nc3c2c2ccccc2n3C)cc1,> 100 µM,47.2 µM,> 100 µM,> 100 µM,> 100 µM,27.5 µM,> 100 µM,,,> 100 µM,7.62 µM,11.1 µM,11.1 µM,54.2 µM,58.6 µM,> 100 µM,8.78 µM,13.6 µM,,
COc1ccc2c(=O)c([Se]c3coc4cc(OC)ccc4c3=O)coc2c1,> 100 µM,> 100 µM,> 100 µM,> 100 µM,> 100 µM,> 100 µM,> 100 µM,37.5 µM,> 100 µM,,,,,,,,,,,
NC(=O)c1ccccc1NC(=O)C(=O)C(C(=O)c1ccc2ccccc2c1)C1OC(=O)c2ccccc21 (stereo unspecified),20.7 µM,29.9 µM,41.5 µM,37.1 µM,67.1 µM,,75.8 µM,30 µM,> 100 µM,,,,,,,,,,,
CCCCCCCCCCCCCCCCOC(=O)C(C(=O)OCCCCCCCCCCCCCCCC)[N+](C)(C)CCOC(C)=O,43.8 µM,44.8 µM,46.1 µM,35.3 µM,35.1 µM,,25.9 µM,38.5 µM,57.5 µM,,,,,,,,,,,
CC/C(=N\Nc1nc2ccccc2n1C)c1ccccn1,14.4 µM,5.32 µM,12.9 µM,12.7 µM,15.6 µM,1.62 µM,18 µM,,0.837 µM,0.281 µM,0.118 µM,0.0141 µM,0.0327 µM,13.8 µM,0.128 µM,0.156 µM,0.182 µM,< 0.0269 µM,0.153 µM,
COc1ccc(/C=C/c2cc(OC)c(O[Si](C)(C)C(C)(C)C)c(OC)c2)cc1,> 100 µM,,> 100 µM,> 100 µM,> 100 µM,> 100 µM,> 100 µM,> 100 µM,> 100 µM,,,,,,,,,,,
CN(C)CCNC(=O)c1cccc2nc3ccc4ccccc4c3nc12,0.921 µM,0.228 µM,0.468 µM,0.342 µM,0.55 µM,0.271 µM,1.25 µM,1.14 µM,0.241 µM,,,,,,,,,,,
Cc1cc2c3ccccc3n(C)c2c2c1C(=O)c1ccccc1C2=O,80.3 µM,,,41.7 µM,,> 100 µM,73.2 µM,40.9 µM,> 100 µM,,,,,,,,,,,
COC(=O)/C(C#N)=C\N1CCN(C(=O)c2ccco2)C1=S,> 100 µM,8 µM,> 100 µM,14.4 µM,,,55.1 µM,19.9 µM,,54.9 µM,2.39 µM,2.95 µM,6.82 µM,63.4 µM,3.69 µM,,,12.2 µM,,6.35 µM
COc1c(OC(C)=O)cc2c(OC(C)=O)c1CC(C)CC(OC)C(O)C(C)/C=C(\C)C(OC(N)=O)C(OC)/C=C\C=C(/C)C(=O)N2 (stereo unspecified),> 100 µM,> 100 µM,> 100 µM,> 100 µM,> 100 µM,> 100 µM,> 100 µM,> 100 µM,> 100 µM,,,,,,,,,,,
COc1ccc(/C=C2/C(=O)N(C(=O)c3ccccc3O)N=C2C)cc1OC,,> 54.2 µM,> 100 µM,> 50.7 µM,> 100 µM,,> 100 µM,> 55.6 µM,,,,,,> 100 µM,,,,,,
O=C(c1cc2ccccc2[nH]1)C(O)(c1cc2ccccc2[nH]1)c1cc2ccccc2[nH]1,> 246 µM,> 246 µM,> 246 µM,> 246 µM,> 246 µM,> 246 µM,> 246 µM,,,,,,,,,,,,,
CCOc1ccccc1NC(=O)C(=O)CC(=O)C1=C(C)Nc2ccccc2S1,> 100 µM,> 100 µM,> 100 µM,> 100 µM,> 100 µM,> 100 µM,> 100 µM,> 100 µM,> 100 µM,,,,,,,,,,,
COC(=O)CCC(NC(=S)N/N=C(\C)c1ccccn1)C(=O)OC (stereo unspecified),> 100 µM,> 100 µM,> 100 µM,> 100 µM,> 100 µM,> 100 µM,> 100 µM,> 100 µM,> 100 µM,,,,,,,,,,,
O=c1[nH]c(=S)[nH]c2c1sc(=S)n2-c1ccccc1,> 100 µM,> 100 µM,> 100 µM,> 100 µM,> 100 µM,> 100 µM,> 100 µM,> 100 µM,> 100 µM,,,,,,,,,,,
Cc1ccc(SSCCCS(=O)O)cc1,> 100 µM,32.3 µM,> 100 µM,> 100 µM,> 100 µM,40.6 µM,> 100 µM,96.8 µM,69.9 µM,,,,,,,,,,,
C=C1CC[C@@H]2C(C)(C)[C@@H](O)CC[C@@]2(C)[C@@H]1COc1ccc2ccc(=O)oc2c1,34.2 µM,27.7 µM,26.8 µM,30.8 µM,39.9 µM,28.5 µM,32.6 µM,27.2 µM,,14.1 µM,13.8 µM,11.5 µM,5.71 µM,21.8 µM,14.1 µM,18.7 µM,14.7 µM,8.61 µM,,12.5 µM
NC(=S)N/N=C(/CC(=O)c1ccc([N+](=O)[O-])cc1)C(=O)Nc1ncc([N+](=O)[O-])s1,> 100 µM,> 100 µM,,> 100 µM,> 100 µM,,> 100 µM,> 100 µM,,,,,,,,,,,,
CCC(=O)C1=C(OC(C)=O)C2Cc3c(n(C)c4ccccc34)C(C1)N2C (stereo unspecified),> 100 µM,> 100 µM,38 µM,61.5 µM,> 100 µM,59.2 µM,> 100 µM,> 100 µM,> 100 µM,,,,,,,,,,,
O=C(CC(=O)N1N=C(n2ccc3ccccc32)CC1c1ccccc1)Nc1cccc(Cl)c1 (stereo unspecified),> 100 µM,> 100 µM,> 100 µM,> 100 µM,> 100 µM,> 100 µM,> 100 µM,> 100 µM,> 100 µM,,,,,,,,,,,
